The results in this text go back to US20040253268A1, “Biological compositions and methods for treatment of uterine cancer” (priority 2003, published 2004).

The subject of data set [1] is uterine cancer cell line CRL-1622. The data set can be described thus: Tumor growth in 615 strain mouse model of human uterine cancer (Example 6). It is filed as in vivo, 615 mice. The note with it: day 31 after tumor inoculation; 30 days dosing; AY/NY 0.3 ml/day oral, MMC 0.8 mg/kg/day s.c. The source says:
The following example illustrates the benefit of a biological composition of the invention in a 615 strain mouse model of human uterine cancer. The growth of the tumor in the mice was studied.
Murine transplantable uterine cancer type CRL-1622 closely resembles the human uterine cancer pathology. The uterine cancer cell line CRL-1622 can be ordered from the American Type Culture Collection.
(§1) The biological composition comprising 10^8 cells per ml of activated and conditioned yeast cells of the strain Saccharomyces carlsbergensis Hansen strain AS2.605 was prepared by the methods described in Section 5.1 and subsections therein.
The animals used to generate the uterine cancer cells for the experiments were female 615 mice (obtainable from the Chinese Academy of Military Medical Sciences, Beijing, China), 4 to 6 months, having an average body weight of about 20 to 22 gram. About 1.2×10^7 viable tumor cells of the uterine cancer cell line CRL-1 622 (obtainable from the Cancer Institute, Chinese Academy of Medical Sciences, Beijing, China) in about 0.2 ml culture suspension were injected subcutaneously into the animals. […]
The mice received the biological composition, untreated yeast cells, MMC or saline on the same day as the tumor cells were transplanted. […] The weight of the mice and the weight of the tumor were determined by standard techniques.

Data set [2] shares this test system. The data set can be described thus: Survival in 615 strain mouse model of human uterine cancer (Example 7). The class given is in vivo. The note with it: 2AY/2NY 0.5 ml/day oral; for Number of live animals remaining in the groups after 30 days of treatment: 30 mice per group, 2MMC 1.2 mg/kg/day s.c. The procedure: The following example illustrates the benefit of a biological composition of the invention in a model of human uterine cancer in a 615 strain mouse. The survival time of mice after tumor injection and treatment was studied.
as §1
The animals were prepared in a similar manner as described in Section 6.1. 7.2 Experimental Design The mice injected with tumor cells were immediately divided into 4 experimental groups of ten mice per group and one control group. The four experimental groups were triplicated (i.e., using a total of 120 mice in the experimental groups). In group 2AY, the mice received 0.5 ml of the biological composition once per day. In group 2NY, the mice received 0.5 ml of the untreated yeast cells once per day. In group 2MMC, the mice were injected subcutaneously with 1.2 mg of mitomycin C (MMC) per kg body weight per day. In group 2CK1, the mice received 0.5 ml of physiological saline once per day.
The mice received the biological composition, untreated yeast cells, MMC or saline on the same day as the tumor cells were transplanted. The mice in group 2CK2 also started receiving saline on the same day as the other four groups. The biological composition, untreated yeast cells and saline were administered orally by a feeding tube and the MMC by subcutaneous injection for 30 consecutive days. The mice were observed over 6 months from the day of tumor inoculation and survival was recorded. The weight of the mice and the weight of the tumor were determined by standard techniques.

Data set [3] concerns uterine cancer cell line HTB-114. In words: Tumor growth in kun ming mouse model of human uterine cancer (Example 8). It is filed as in vivo. The note with it: day 31 after tumor inoculation; 30 days dosing; AY/NY 0.3 ml/day oral, VCR 3 mg/kg/day i.v.
Description: The following example illustrates the benefit of a biological composition of the invention in a kun ming mouse model of human uterine cancer. The growth of the tumor in the mice was studied.
Murine transplantable uterine cancer type HTB-114 closely resembles the human uterine cancer pathology. The uterine cancer cell line HTB-114 can be ordered from the American Type Culture Collection.
as §1
The animals used to generate the uterine cancer cells for the experiments were female kun ming mouse (obtainable from the Chinese Academy of Military Medical Sciences, Beijing, China), 5 to 6 months, having an average body weight of about 20 to 22 gram. About 1.2×10^7 viable tumor cells of the uterine cancer cell line HTB-114 (obtainable from the Cancer Institute, Chinese Academy of Medical Sciences, Beijing, China) in about 0.2 ml culture suspension were injected subcutaneously into the animals. […]
The mice received the biological composition, untreated yeast cells, VCR or saline on the same day as the tumor cells were transplanted. […] The weight of the mice and the weight of the tumor were determined by standard techniques.

Data set [4] shares this test system. The data set can be described thus: Survival in kun ming mouse model of human uterine cancer (Example 9). It is filed as in vivo. The settings on record: 2AY/2NY 0.5 ml/day oral; for Number of live animals remaining in the groups after 30 days of treatment: 30 mice per group, 2VCR 4.5 mg/kg/day i.v. The procedure:
The following example illustrates the benefit of a biological composition of the invention in a kun ming mouse model of human uterine cancer. The survival time of mice after tumor injection and treatment was studied.
The biological composition comprising 10^8 cells per ml of activated and conditioned yeast cells of the strain Saccharomyces cartsbergensis Hansen strain AS2.605 was prepared by the methods described in Section 5.1 and subsections therein.
The animals were prepared in a similar manner as described in Section 8.1.
The mice injected with tumor cells were immediately divided into 4 experimental groups of ten mice per group and one control group. The four experimental groups were triplicated (i.e., using a total of 120 mice in the experimental groups). In group 2AY, the mice received 0.5 ml of the biological composition once per day. In group 2NY, the mice received 0.5 ml of the untreated yeast cells once per day. In group 2VCR, the mice were injected intravenously with 4.5 mg of […] (VCR) per kg body weight per day. In group 2CK1, the mice received 0.5 ml of physiological saline once per day.
The mice received the biological composition, untreated yeast cells, VCR or saline on the same day as the tumor cells were transplanted. The mice in group 2CK2 also started receiving saline on the same day as the other four groups. The biological composition, untreated yeast cells and saline were administered orally by a feeding tube and the VCR by intravenous injection for 30 consecutive days. The mice were observed over 6 months from the day of tumor inoculation and survival was recorded. The weight of the mice and the weight of the tumor were determined by standard techniques.

Where [5] appears, read: 0 month after cessation of treatment.
Where [6] appears, read: 1 month after cessation of treatment.
Setting [7] is: 2 months after cessation of treatment.
[8] abbreviates: 3 months after cessation of treatment.
[9] abbreviates: 4 months after cessation of treatment.
Setting [10] is: 5 months after cessation of treatment.
Where [11] appears, read: 6 months after cessation of treatment.
[12] abbreviates: surviving mice after 6 months observation, 2MMC 1.2 mg/kg/day s.c. for 30 days.
Setting [13] is: surviving mice after 6 months observation, 2VCR 4.5 mg/kg/day i.v. for 30 days.

Turning to `CO[C@@]12[C@H](COC(N)=O)C3=C(C(=O)C(C)=C(N)C3=O)N1C[C@@H]1N[C@@H]12` [MMC, mitomycin C], the “mean weight of mice and standard deviation” value is listed as 18.3 ± 3.1 g in data set [1] and “all animals dead” in data set [2] (setting [12]). Also, the “mean weight of tumor nodules and standard deviation” value is given as 3.56 ± 2.32 mg in data set [1] and “all animals dead” in data set [2] (setting [12]). Besides, the “Number of live animals remaining in the groups after 30 days of treatment” value (“Number of live animals remaining” below) was 30 in data set [2] (setting [5]); 28 in data set [2] (setting [6]); 26 in data set [2] (setting [7]); 18 in data set [2] (setting [8]); 7 in data set [2] (setting [9]); 0 in data set [2] (setting [10]). In data set [2] (setting [11]), the “Number of live animals remaining” value is listed as 0. For the same compound, in data set [2] (2MMC 1.2 mg/kg/day s.c. for 30 days, observed over 6 months), the survival time entry is “all died during the experiment”.

Take `CC[C@]1(O)C[C@@H]2CN(CCc3c([nH]c4ccccc34)[C@@](C(=O)OC)(c3cc4c(cc3OC)N(C)[C@H]3[C@@](O)(C(=O)OC)[C@H](OC(C)=O)[C@]5(CC)C=CCN6CC[C@]43[C@@H]65)C2)C1` [VCR, vinblastine]: the “mean weight of mice and standard deviation” value in data set [3] was 18.3 ± 3.3 g; in data set [4] (setting [13]), “all animals dead”. For the same compound, the “mean weight of tumor nodules and standard deviation” value in data set [3] is recorded as 4.36 ± 2.45 g; in data set [4] (setting [13]), “all animals dead”. Moreover, the “Number of live animals remaining” value in data set [4] (setting [5]) turned out to be 30; in data set [4] (setting [6]), 28; in data set [4] (setting [7]) it was 19; in data set [4] (setting [8]), 11; in data set [4] (setting [9]), 3; in data set [4] (setting [10]) it was 0. In addition, the “Number of live animals remaining” value in data set [4] (setting [11]) is 0. Also, the survival time entry in data set [4] (2VCR 4.5 mg/kg/day i.v. for 30 days, observed over 6 months) is recorded as “all died during the experiment”.
